Measured values: patent US11053204B2, “Pyrimidinyloxy benzene derivatives as herbicides” (FMC Corporation, priority 2015, dated 2021)

Experiments:
Type in all cases: in vivo
[1] = tested on: ducksalad (Heteranthera limosa); assay: Test B flooded paddy test, plant response rating; settings: 250 g ai/ha; Flood; scale of 0 to 100 where 0 is no effect and 100 is complete control; 13 to 15 days
Method in brief: (§1)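 In-water treatment: compound dosed into 3 cm flood over soil, water level unchanged throughout. Controls run alongside; visual assessment at day 13–15.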

rice (Oryza sativa) = assay: Test B flooded paddy test, plant response rating; settings: 250 g ai/ha; Flood; scale of 0 to 100 where 0 is no effect and 100 is complete control; 13 to 15 days
Method in brief: as §1

[2] = tested on: sedge, umbrella (small-flower umbrella sedge, Cyperus difformis); assay: Test B flooded paddy test, plant response rating; settings: 250 g ai/ha; Flood; scale of 0 to 100 where 0 is no effect and 100 is complete control; 13 to 15 days
Method in brief: as §1

[3] = tested on: barnyardgrass (Echinochloa crus-galli); assay: Test B flooded paddy test, plant response rating; settings: 250 g ai/ha; Flood; scale of 0 to 100 where 0 is no effect and 100 is complete control; 13 to 15 days
Method in brief: as §1

kochia (Kochia scoparia) [4] = assay: Test A postemergence, visual injury rating; settings: 0 is no effect, 100 is complete control; for Kochia plant response rating: 0 to 100 scale, approximately 10 days
Method in brief: (§2)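 Injury scores run from 0, no effect, to 100, complete control, judged by eye against untreated plants roughly 10 days after treatment. Chemicals carried a surfactant in a non-phytotoxic solvent and went onto loam–sand soil preemergence or onto one- to two-leaf seedlings postemergence.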

corn (Zea mays) = assay: Test A postemergence, visual injury rating; settings: 0 is no effect, 100 is complete control; for Corn plant response rating: 0 to 100 scale, approximately 10 days
Method in brief: as §2

[5] = tested on: ragweed (common ragweed, Ambrosia elatior); assay: Test A postemergence, visual injury rating; settings: 0 is no effect, 100 is complete control; for Ragweed plant response rating: 0 to 100 scale, approximately 10 days
Method in brief: as §2

[6] = tested on: Italian ryegrass (Lolium multiflorum); assay: Test A postemergence, visual injury rating; settings: 0 is no effect, 100 is complete control; for Ryegrass, Italian plant response rating: 0 to 100 scale, approximately 10 days
Method in brief: as §2

[7] = tested on: pigweed (Amaranthus retroflexus); assay: Test A postemergence, visual injury rating; settings: 0 is no effect, 100 is complete control; for Pigweed plant response rating: 0 to 100 scale, approximately 10 days
Method in brief: as §2

[8] = tested on: giant foxtail (Setaria faberii); assay: Test A postemergence, visual injury rating; settings: 0 is no effect, 100 is complete control; for Foxtail, Giant plant response rating: 0 to 100 scale, approximately 10 days
Method in brief: as §2

[9] = tested on: blackgrass (Alopecurus myosuroides); assay: Test A postemergence, visual injury rating; settings: 0 is no effect, 100 is complete control; for Blackgrass plant response rating: 0 to 100 scale, approximately 10 days
Method in brief: as §2

[10] = tested on: barnyardgrass (Echinochloa crus-galli); assay: Test A postemergence, visual injury rating; settings: 0 is no effect, 100 is complete control; for Barnyardgrass plant response rating: 0 to 100 scale, approximately 10 days
Method in brief: as §2

[11] = tested on: galium (catchweed bedstraw, Galium aparine); assay: Test A postemergence, visual injury rating; settings: 0 is no effect, 100 is complete control; for Galium plant response rating: 0 to 100 scale, approximately 10 days
Method in brief: as §2

[12] = tested on: wheat (Triticum aestivum); assay: Test A postemergence, visual injury rating; settings: 0 is no effect, 100 is complete control; for Wheat plant response rating: 0 to 100 scale, approximately 10 days
Method in brief: as §2

kochia (Kochia scoparia) [13] = assay: Test A preemergence, visual injury rating; settings: for Kochia plant response rating: 0 to 100 scale (0 no effect, 100 complete control); for Plant response rating, Kochia: 31 g ai/ha, 0 to 100 scale, 0 no effect, 100 complete control
Method in brief: as §2

[14] = tested on: ragweed (common ragweed, Ambrosia elatior); assay: Test A preemergence, visual injury rating; settings: for Ragweed plant response rating: 0 to 100 scale (0 no effect, 100 complete control); for Plant response rating, Ragweed: 31 g ai/ha, 0 to 100 scale, 0 no effect, 100 complete control
Method in brief: as §2

[15] = tested on: Italian ryegrass (Lolium multiflorum); assay: Test A preemergence, visual injury rating; settings: for Ryegrass, Italian plant response rating: 0 to 100 scale (0 no effect, 100 complete control); for Plant response rating, Ryegrass, Italian: 31 g ai/ha, 0 to 100 scale, 0 no effect, 100 complete control
Method in brief: as §2

[16] = tested on: pigweed (Amaranthus retroflexus); assay: Test A preemergence, visual injury rating; settings: for Pigweed plant response rating: 0 to 100 scale (0 no effect, 100 complete control); for Plant response rating, Pigweed: 31 g ai/ha, 0 to 100 scale, 0 no effect, 100 complete control
Method in brief: as §2

[17] = tested on: giant foxtail (Setaria faberii); assay: Test A preemergence, visual injury rating; settings: for Foxtail, Giant plant response rating: 0 to 100 scale (0 no effect, 100 complete control); for Plant response rating, Foxtail, Giant: 31 g ai/ha, 0 to 100 scale, 0 no effect, 100 complete control
Method in brief: as §2

[18] = tested on: barnyardgrass (Echinochloa crus-galli); assay: Test A preemergence, visual injury rating; settings: for Barnyardgrass plant response rating: 0 to 100 scale (0 no effect, 100 complete control); for Plant response rating, Barnyardgrass: 31 g ai/ha, 0 to 100 scale, 0 no effect, 100 complete control
Method in brief: as §2

Row | SMILES | Plant response rating, Ducksalad [1] | Plant response rating, Rice (rice (Oryza sativa)) | Plant response rating, Sedge, Umbrella [2] | Plant response rating, Barnyardgrass [3] | Kochia plant response rating (kochia (Kochia scoparia) [4]; 125 g ai/ha) | Corn plant response rating (corn (Zea mays); 125 g ai/ha) | Ragweed plant response rating ([5]; 125 g ai/ha) | Ryegrass, Italian plant response rating ([6]; 125 g ai/ha) | Pigweed plant response rating ([7]; 125 g ai/ha) | Foxtail, Giant plant response rating ([8]; 125 g ai/ha) | Blackgrass plant response rating ([9]; 125 g ai/ha) | Barnyardgrass plant response rating ([10]; 125 g ai/ha) | Galium plant response rating ([11]; 125 g ai/ha) | Wheat plant response rating ([12]; 125 g ai/ha) | Kochia plant response rating (kochia (Kochia scoparia) [13]; 125 g ai/ha) | Ragweed plant response rating ([14]; 125 g ai/ha) | Ryegrass, Italian plant response rating ([15]; 125 g ai/ha) | Pigweed plant response rating ([16]; 125 g ai/ha) | Foxtail, Giant plant response rating ([17]; 125 g ai/ha) | Barnyardgrass plant response rating ([18]; 125 g ai/ha) | other results
1 | O=C(SCC(F)(F)F)c1c(Br)cccc1Oc1ncc(Cl)cn1 [Compound 85] | 0 | 0 | 0 | 0 | 30 | 10 | 0 | 0 | 30 | 0 | 0 | 0 | 30 | 0 | 0 | 0 | 0 | 0 | 0 | 0 | Kochia plant response rating (0 to 100 scale) (kochia (Kochia scoparia) [4]; 500 g ai/ha): 80; Corn plant response rating (0 to 100 scale) (corn (Zea mays); 500 g ai/ha): 40; Ragweed plant response rating (0 to 100 scale) ([5]; 500 g ai/ha): 0; Ryegrass, Italian plant response rating (0 to 100 scale) ([6]; 500 g ai/ha): 0; Pigweed plant response rating (0 to 100 scale) ([7]; 500 g ai/ha): 70; Foxtail, Giant plant response rating (0 to 100 scale) ([8]; 500 g ai/ha): 60; Blackgrass plant response rating (0 to 100 scale) ([9]; 500 g ai/ha): 0; Barnyardgrass plant response rating (0 to 100 scale) ([10]; 500 g ai/ha): 20; Galium plant response rating (0 to 100 scale) ([11]; 500 g ai/ha): 90; Wheat plant response rating (0 to 100 scale) ([12]; 500 g ai/ha): 20; Kochia plant response rating (kochia (Kochia scoparia) [13]; 500 g ai/ha): 0; Ragweed plant response rating ([14]; 500 g ai/ha): 0; Ryegrass, Italian plant response rating ([15]; 500 g ai/ha): 0; Pigweed plant response rating ([16]; 500 g ai/ha): 60; Foxtail, Giant plant response rating ([17]; 500 g ai/ha): 70; Barnyardgrass plant response rating ([18]; 500 g ai/ha): 10
2 | CCCCc1c(C#N)cccc1Oc1ncc(Cl)cn1 [Compound 86] | 100 | 20 | 100 | 40 | 100 | 30 | 0 | 20 | 40 | 30 | 20 | 40 | 70 | 40 | 100 | 0 | 20 | 100 | 50 | 90 | Kochia plant response rating (kochia (Kochia scoparia) [4]; 31 g ai/ha): 90; Corn plant response rating (corn (Zea mays); 31 g ai/ha): 30; Ragweed plant response rating ([5]; 31 g ai/ha): 0; Ryegrass, Italian plant response rating ([6]; 31 g ai/ha): 0; Pigweed plant response rating ([7]; 31 g ai/ha): 30; Foxtail, Giant plant response rating ([8]; 31 g ai/ha): 10; Blackgrass plant response rating ([9]; 31 g ai/ha): 0; Barnyardgrass plant response rating ([10]; 31 g ai/ha): 20; Galium plant response rating ([11]; 31 g ai/ha): 30; Wheat plant response rating ([12]; 31 g ai/ha): 30; Plant response rating, Kochia (kochia (Kochia scoparia) [13]): 10; Plant response rating, Ragweed [14]: 0; Plant response rating, Ryegrass, Italian [15]: 0; Plant response rating, Pigweed [16]: 20; Plant response rating, Foxtail, Giant [17]: 0; Plant response rating, Barnyardgrass [18]: 0
3 | CCCCCc1c(C#N)cccc1Oc1ncc(Cl)cn1 [Compound 87] | 100 | 35 | 100 | 50 | 100 | 50 | 0 | 30 | 60 | 90 | 70 | 100 | 70 | 30 | 90 | 0 | 20 | 100 | 100 | 100 | Kochia plant response rating (kochia (Kochia scoparia) [4]; 31 g ai/ha): 100; Corn plant response rating (corn (Zea mays); 31 g ai/ha): 40; Ragweed plant response rating ([5]; 31 g ai/ha): 0; Ryegrass, Italian plant response rating ([6]; 31 g ai/ha): 0; Pigweed plant response rating ([7]; 31 g ai/ha): 40; Foxtail, Giant plant response rating ([8]; 31 g ai/ha): 40; Blackgrass plant response rating ([9]; 31 g ai/ha): 10; Barnyardgrass plant response rating ([10]; 31 g ai/ha): 40; Galium plant response rating ([11]; 31 g ai/ha): 30; Wheat plant response rating ([12]; 31 g ai/ha): 20; Plant response rating, Kochia (kochia (Kochia scoparia) [13]): 30; Plant response rating, Ragweed [14]: 0; Plant response rating, Ryegrass, Italian [15]: 0; Plant response rating, Pigweed [16]: 40; Plant response rating, Foxtail, Giant [17]: 60; Plant response rating, Barnyardgrass [18]: 70
4 | O=C(OCCC(F)(F)F)c1cc(Cl)ccc1Oc1ncc(Cl)cn1 [Compound 88] | 0 | 20 | 0 | 0 | 0 | 0 | 0 | 0 | 0 | 0 | 0 | 0 | 0 | 0 | 0 | 0 | 0 | 0 | 0 | 0 | Kochia plant response rating (kochia (Kochia scoparia) [4]; 31 g ai/ha): 0; Corn plant response rating (corn (Zea mays); 31 g ai/ha): 0; Ragweed plant response rating ([5]; 31 g ai/ha): 0; Ryegrass, Italian plant response rating ([6]; 31 g ai/ha): 0; Pigweed plant response rating ([7]; 31 g ai/ha): 0; Foxtail, Giant plant response rating ([8]; 31 g ai/ha): 0; Blackgrass plant response rating ([9]; 31 g ai/ha): 0; Barnyardgrass plant response rating ([10]; 31 g ai/ha): 0; Galium plant response rating ([11]; 31 g ai/ha): 0; Wheat plant response rating ([12]; 31 g ai/ha): 0; Plant response rating, Kochia (kochia (Kochia scoparia) [13]): 0; Plant response rating, Ragweed [14]: 0; Plant response rating, Ryegrass, Italian [15]: 0; Plant response rating, Pigweed [16]: 0; Plant response rating, Foxtail, Giant [17]: 0; Plant response rating, Barnyardgrass [18]: 0
5 | C=C(C)CCOC(=O)c1c(Br)cccc1Oc1ncc(Cl)cn1 [Compound 90] | 30 | 0 | 60 | 0 | 50 | 10 | 0 | 0 | 50 | 60 | 0 | 30 | 20 | 0 | 0 | 0 | 0 | 0 | 70 | 40 | Kochia plant response rating (kochia (Kochia scoparia) [4]; 31 g ai/ha): 30; Corn plant response rating (corn (Zea mays); 31 g ai/ha): 0; Ragweed plant response rating ([5]; 31 g ai/ha): 0; Ryegrass, Italian plant response rating ([6]; 31 g ai/ha): 0; Pigweed plant response rating ([7]; 31 g ai/ha): 10; Foxtail, Giant plant response rating ([8]; 31 g ai/ha): 10; Blackgrass plant response rating ([9]; 31 g ai/ha): 0; Barnyardgrass plant response rating ([10]; 31 g ai/ha): 0; Galium plant response rating ([11]; 31 g ai/ha): 0; Wheat plant response rating ([12]; 31 g ai/ha): 0; Plant response rating, Kochia (kochia (Kochia scoparia) [13]): 0; Plant response rating, Ragweed [14]: 0; Plant response rating, Ryegrass, Italian [15]: 0; Plant response rating, Pigweed [16]: 0; Plant response rating, Foxtail, Giant [17]: 10; Plant response rating, Barnyardgrass [18]: 0
